Reference: the supplement of paper PMC10307832

Experiments:
Test in all cases: relative viability (nuclei count vs DMSO), 5 days (fraction); higher = more cells survive
NCI-H1355 = test system: NCI-H1355
Method in brief: (§1)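 Cells from lung cancer lines were seeded into 1536-well plates and, one day later, dosed by pin tool. Treatments were either a single drug or a fixed dose of an anchor drug with five library-drug doses (not always all listed) in √10 steps. After 5 days, nuclei were stained in a one-step fixation (final 0.05% Triton X-100, 1% formaldehyde, 1 ug/ml Hoechst) and counted on 4× images, and relative viability is the treated-to-vehicle nuclei ratio, as the median of duplicate plates.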

HCC-366 = test system: HCC-366
Method in brief: as §1

NCI-H2009 = test system: NCI-H2009
Method in brief: as §1

NCI-H2228 = test system: NCI-H2228
Method in brief: as §1

HCC-44 = test system: HCC-44
Method in brief: as §1

NCI-H596 = test system: NCI-H596
Method in brief: as §1

NCI-H2342 = test system: NCI-H2342
Method in brief: as §1

SK-MES-1 = test system: SK-MES-1
Method in brief: as §1

NCI-H647 = test system: NCI-H647
Method in brief: as §1

NCI-H1734 = test system: NCI-H1734
Method in brief: as §1

SK-LU-1 = test system: SK-LU-1
Method in brief: as §1

NCI-H2087 = test system: NCI-H2087
Method in brief: as §1

HARA = test system: HARA
Method in brief: as §1

NCI-H1395 = test system: NCI-H1395
Method in brief: as §1

NCI-H661 = test system: NCI-H661
Method in brief: as §1

NCI-H2170 = test system: NCI-H2170
Method in brief: as §1

NCI-H1437 = test system: NCI-H1437
Method in brief: as §1

LC-2-ad = test system: LC-2-ad
Method in brief: as §1

LOU-NH91 = test system: LOU-NH91
Method in brief: as §1

NCI-H2405 = test system: NCI-H2405
Method in brief: as §1

BEN = test system: BEN
Method in brief: as §1

HCC-827 = test system: HCC-827
Method in brief: as §1

EKVX = test system: EKVX
Method in brief: as §1

SMILES: C[C@@H]1CN(CC(=O)Nc2ccc3c(c2)Cc2cccc(-c4cc(=O)cc(N5CCOCC5)o4)c2S3)C[C@H](C)O1 + O=C(CCCCCCC(=O)Nc1ccccc1)NO [Vorinostat] (partner 1 µM)
- relative viability (NCI-H1355; first compound 0.04 µM): 0.552
- relative viability (NCI-H1355; first compound 0.1265 µM): 0.713
- relative viability (NCI-H1355; first compound 0.4 µM): 0.566
- relative viability (NCI-H1355; first compound 4 µM): 0.621
- relative viability (HCC-366; first compound 0.04 µM): 0.314
- relative viability (HCC-366; first compound 0.1265 µM): 0.366
- relative viability (HCC-366; first compound 0.4 µM): 0.346
- relative viability (HCC-366; first compound 4 µM): 0.264
- relative viability (NCI-H2009; first compound 0.04 µM): 0.635
- relative viability (NCI-H2009; first compound 0.1265 µM): 0.772
- relative viability (NCI-H2009; first compound 0.4 µM): 0.664
- relative viability (NCI-H2009; first compound 4 µM): 0.497
- relative viability (NCI-H2228; first compound 0.04 µM): 0.667
- relative viability (NCI-H2228; first compound 0.1265 µM): 0.589
- relative viability (NCI-H2228; first compound 0.4 µM): 0.852
- relative viability (NCI-H2228; first compound 4 µM): 0.569
- relative viability (HCC-44; first compound 0.04 µM): 1.12
- relative viability (HCC-44; first compound 0.1265 µM): 1.01
- relative viability (HCC-44; first compound 0.4 µM): 1.08
- relative viability (HCC-44; first compound 4 µM): 0.966
- relative viability (NCI-H596; first compound 0.04 µM): 0.627
- relative viability (NCI-H596; first compound 0.1265 µM): 0.707
- relative viability (NCI-H596; first compound 0.4 µM): 0.642
- relative viability (NCI-H596; first compound 4 µM): 0.567
- relative viability (NCI-H2342; first compound 0.04 µM): 0.609
- relative viability (NCI-H2342; first compound 0.1265 µM): 0.652
- relative viability (NCI-H2342; first compound 0.4 µM): 0.668
- relative viability (NCI-H2342; first compound 4 µM): 0.703
- relative viability (SK-MES-1; first compound 0.04 µM): 1.19
- relative viability (SK-MES-1; first compound 0.1265 µM): 1.07
- relative viability (SK-MES-1; first compound 0.4 µM): 1.01
- relative viability (SK-MES-1; first compound 4 µM): 0.855
- relative viability (NCI-H647; first compound 0.04 µM): 0.547
- relative viability (NCI-H647; first compound 0.1265 µM): 0.491
- relative viability (NCI-H647; first compound 0.4 µM): 0.665
- relative viability (NCI-H647; first compound 4 µM): 0.416
- relative viability (NCI-H1734; first compound 0.04 µM): 0.602
- relative viability (NCI-H1734; first compound 0.1265 µM): 0.768
- relative viability (NCI-H1734; first compound 0.4 µM): 0.812
- relative viability (NCI-H1734; first compound 4 µM): 0.901
- relative viability (SK-LU-1; first compound 0.04 µM): 0.765
- relative viability (SK-LU-1; first compound 0.1265 µM): 0.831
- relative viability (SK-LU-1; first compound 0.4 µM): 0.811
- relative viability (SK-LU-1; first compound 4 µM): 0.568
- relative viability (NCI-H2087; first compound 0.04 µM): 0.85
- relative viability (NCI-H2087; first compound 0.1265 µM): 0.587
- relative viability (NCI-H2087; first compound 0.4 µM): 0.663
- relative viability (NCI-H2087; first compound 4 µM): 0.62
- relative viability (HARA; first compound 0.04 µM): 0.511
- relative viability (HARA; first compound 0.1265 µM): 0.61
- relative viability (HARA; first compound 0.4 µM): 0.445
- relative viability (HARA; first compound 4 µM): 0.436
- relative viability (NCI-H1395; first compound 0.1265 µM): 0.631
- relative viability (NCI-H1395; first compound 0.4 µM): 0.597
- relative viability (NCI-H1395; first compound 4 µM): 0.812
- relative viability (NCI-H661; first compound 0.04 µM): 0.689
- relative viability (NCI-H661; first compound 0.1265 µM): 0.805
- relative viability (NCI-H661; first compound 0.4 µM): 0.756
- relative viability (NCI-H661; first compound 4 µM): 0.773
- relative viability (NCI-H2170; first compound 0.04 µM): 0.857
- relative viability (NCI-H2170; first compound 0.1265 µM): 0.811
- relative viability (NCI-H2170; first compound 0.4 µM): 0.798
- relative viability (NCI-H2170; first compound 4 µM): 0.742
- relative viability (NCI-H1437; first compound 0.04 µM): 0.837
- relative viability (NCI-H1437; first compound 0.1265 µM): 0.768
- relative viability (NCI-H1437; first compound 0.4 µM): 0.819
- relative viability (NCI-H1437; first compound 4 µM): 0.609
- relative viability (LC-2-ad; first compound 0.04 µM): 0.639
- relative viability (LC-2-ad; first compound 0.1265 µM): 0.679
- relative viability (LC-2-ad; first compound 0.4 µM): 0.712
- relative viability (LC-2-ad; first compound 4 µM): 0.606
- relative viability (LOU-NH91; first compound 0.04 µM): 0.611
- relative viability (LOU-NH91; first compound 0.1265 µM): 0.945
- relative viability (LOU-NH91; first compound 0.4 µM): 0.847
- relative viability (LOU-NH91; first compound 4 µM): 0.785
- relative viability (NCI-H2405; first compound 0.04 µM): 1.06
- relative viability (NCI-H2405; first compound 0.1265 µM): 1.12
- relative viability (NCI-H2405; first compound 0.4 µM): 0.94
- relative viability (NCI-H2405; first compound 4 µM): 1.01
- relative viability (BEN; first compound 0.04 µM): 0.56
- relative viability (BEN; first compound 0.1265 µM): 0.55
- relative viability (BEN; first compound 0.4 µM): 0.602
- relative viability (BEN; first compound 4 µM): 0.625
- relative viability (HCC-827; first compound 0.04 µM): 0.801
- relative viability (HCC-827; first compound 0.1265 µM): 0.862
- relative viability (HCC-827; first compound 0.4 µM): 0.727
- relative viability (HCC-827; first compound 4 µM): 0.757
- relative viability (EKVX; first compound 0.04 µM): 0.753
- relative viability (EKVX; first compound 0.1265 µM): 0.666
- relative viability (EKVX; first compound 0.4 µM): 0.696
- relative viability (EKVX; first compound 4 µM): 0.661
